Read-outs that look alike come from different tables or passages of the source.
Columns and labels:
Type in all cases: cell-based
[1] = Human tumor cell line growth assay (SRB); conditions: human, MOLT-4 cells (leukemia), MOLT-4, 48 h, read-out: LC50
MOLT-4 = assay: Human tumor cell line growth assay (SRB); conditions: Homo sapiens; Leukemia, MOLT-4, 48 h
[2] = Human tumor cell line growth assay (SRB); conditions: human, HOP-92 cells (NSCLC), HOP-92, 48 h
HOP-92 = assay: Human tumor cell line growth assay (SRB); conditions: Homo sapiens; NSCLC, HOP-92, 48 h
[3] = Human tumor cell line growth assay (SRB); conditions: human, NCI-H322M cells (NSCLC), read-out: LC50
NCI-H322M = assay: Human tumor cell line growth assay (SRB); conditions: Homo sapiens, NSCLC, 48 h
[4] = Human tumor cell line growth assay (SRB); conditions: human, NCI-H460 cells (NSCLC), NCI-H460, 48 h, read-out: LC50
NCI-H460 = assay: Human tumor cell line growth assay (SRB); conditions: Homo sapiens; NSCLC, NCI-H460, 48 h
[5] = Human tumor cell line growth assay (SRB); conditions: human, COLO 205 cells (colon), COLO 205, 48 h, read-out: LC50
COLO 205 = assay: Human tumor cell line growth assay (SRB); conditions: Homo sapiens; Colon, COLO 205, 48 h
[6] = Human tumor cell line growth assay (SRB); conditions: human, HCC-2998 cells (colon), HCC-2998, 48 h, read-out: LC50
HCC-2998 = assay: Human tumor cell line growth assay (SRB); conditions: Homo sapiens; Colon, HCC-2998, 48 h
HCT-15 = assay: Human tumor cell line growth assay (SRB); conditions: Homo sapiens; Colon, HCT-15, 48 h
[7] = Human tumor cell line growth assay (SRB); conditions: human, HT29 cells (colon), HT29, 48 h, read-out: LC50
HT29 = assay: Human tumor cell line growth assay (SRB); conditions: Homo sapiens, HT-29; Colon, HT29, 48 h
[8] = Human tumor cell line growth assay (SRB); conditions: human, KM12 cells (colon), KM12, 48 h, read-out: LC50
KM12 = assay: Human tumor cell line growth assay (SRB); conditions: Homo sapiens; Colon, KM12, 48 h
[9] = Human tumor cell line growth assay (SRB); conditions: human, SF-295 cells (CNS), SF-295, 48 h, read-out: LC50
SF-295 = assay: Human tumor cell line growth assay (SRB); conditions: Homo sapiens; CNS, SF-295, 48 h
[10] = Human tumor cell line growth assay (SRB); conditions: human, SF-539 cells (CNS), SF-539, 48 h, read-out: LC50
SF-539 = assay: Human tumor cell line growth assay (SRB); conditions: Homo sapiens; CNS, SF-539, 48 h
[11] = Human tumor cell line growth assay (SRB); conditions: human, U251 cells (CNS), U251, 48 h, read-out: LC50
U251 = assay: Human tumor cell line growth assay (SRB); conditions: Homo sapiens, U-251; CNS, U251, 48 h
[12] = Human tumor cell line growth assay (SRB); conditions: human, SK-MEL-28 cells (melanoma), SK-MEL-28, 48 h, read-out: LC50
SK-MEL-28 = assay: Human tumor cell line growth assay (SRB); conditions: Homo sapiens; Melanoma, SK-MEL-28, 48 h
[13] = Human tumor cell line growth assay (SRB); conditions: human, UACC-62 cells (melanoma), UACC-62, 48 h, read-out: LC50
UACC-62 = assay: Human tumor cell line growth assay (SRB); conditions: Homo sapiens; Melanoma, UACC-62, 48 h
[14] = Human tumor cell line growth assay (SRB); conditions: human, OVCAR-3 cells (ovarian), OVCAR-3, 48 h, read-out: LC50
OVCAR-3 = assay: Human tumor cell line growth assay (SRB); conditions: Homo sapiens; Ovarian, OVCAR-3, 48 h
[15] = Human tumor cell line growth assay (SRB); conditions: human, OVCAR-5 cells (ovarian), OVCAR-5, 48 h, read-out: LC50
OVCAR-5 = assay: Human tumor cell line growth assay (SRB); conditions: Homo sapiens; Ovarian, OVCAR-5, 48 h
OVCAR-8 = assay: Human tumor cell line growth assay (SRB); conditions: Ovarian, OVCAR-8, 48 h
ACHN = assay: Human tumor cell line growth assay (SRB); conditions: Renal, 48 h
UO-31 = assay: Human tumor cell line growth assay (SRB); conditions: Renal, UO-31, 48 h
MDA-MB-468 = assay: Human tumor cell line growth assay (SRB); conditions: Breast, MDA-MB-468, 48 h
BT-549 = assay: Human tumor cell line growth assay (SRB); conditions: Breast, BT-549, 48 h
Human tumor cell lines = assay: Human tumor cell line growth assay (SRB), summary over the panel; conditions: overall over the panel
[16] = read-out: LC50 (the source's name)

`Cc1cc2nc3c4cc(N)ccc4n(CCN(C)C)c3nc2cc1C` [JBD-136, 6-(2-(dimethylamino)ethyl)-2,3-dimethyl-6H-indolo [2,3-b]quinoxalin-9-amine] gave a CC50 at 48 h [1] of 71.9 µM, a GI50 (MOLT-4) of 0.366 µM and an LC50 at 48 h [2] of over 100 µM. It also gave a GI50 (HOP-92) of 0.912 µM, a CC50 at 48 h [3] of over 100 µM and a GI50 (NCI-H322M) of 0.771 µM. It also gave a CC50 at 48 h [4] of 36.6 µM, a GI50 (NCI-H460) of 0.434 µM and a CC50 at 48 h [5] of 83.6 µM. For the same molecule, the GI50 (COLO 205) was 0.418 µM, the CC50 at 48 h [6] was 21.9 µM and the GI50 (HCC-2998) was 1.02 µM. It also gave a GI50 (HCT-15) of 0.528 µM, a CC50 at 48 h [7] of over 100 µM and a GI50 (HT29) of 0.43 µM. The CC50 at 48 h [8] was 94.7 µM, the GI50 (KM12) was 1.2 µM and the CC50 at 48 h [9] was 33.8 µM. It also gave a GI50 (SF-295) of 1.24 µM, a CC50 at 48 h [10] of 19.5 µM and a GI50 (SF-539) of 0.882 µM. The CC50 at 48 h [11] was 54.2 µM, the GI50 (U251) was 0.64 µM and the CC50 at 48 h [12] was 11.4 µM. It also gave a GI50 (SK-MEL-28) of 2.26 µM, a CC50 at 48 h [13] of 7.99 µM and a GI50 (UACC-62) of 1.18 µM. The CC50 at 48 h [14] was 75.8 µM, the GI50 (OVCAR-3) was 1.56 µM and the CC50 at 48 h [15] was over 100 µM. It also gave a GI50 (OVCAR-5) of 1.24 µM, a GI50 (OVCAR-8) of 0.556 µM and a CC50 (OVCAR-8; [16]) of over 100 µM. The GI50 (ACHN) was 0.367 µM, the CC50 (ACHN; [16]) was 57.3 µM and the GI50 (UO-31) was 0.332 µM. The CC50 (UO-31; [16]) was 55.3 µM, the GI50 (MDA-MB-468) was 1.03 µM and the CC50 (MDA-MB-468; [16]) was 8.28 µM. For the same molecule, the GI50 (BT-549) was 1.78 µM, the CC50 (BT-549; [16]) was 27.9 µM and the “growth inhibition (GI50), comparison in words” value (Human tumor cell lines) was “slightly improved growth inhibition and cytotoxicity compared to B220”.

Reference: patent publication US20230312578A1, “6H-INDOLO[2,3-B]QUINOXALINE DERIVATIVES USEFUL IN THERAPY” (Vironova Medical AB, priority 2020, published 2023)
